Data: paper PMC6895203, “Conformational pathway provides unique sensitivity to a synaptic mGluR” (Nature Communications, 2019)
Several values for one entry are separate records, joined by “and”; a condition that tells them apart may be missing. Identical values can stand only once.

Columns and labels:
[1] = molecular target: SNAP-mGluR7/SNAP-mGluR7 homodimer (mGluR7/7) (Rattus norvegicus, UniProt P35400); assay: smFRET on isolated immune-purified SNAP-mGluR7/7 dimers; details: read-out: EC50 of low FRET peak concentration-response (apparent affinity); smFRET, isolated receptor
[2] = molecular target: T1, SNAP-mGluR2(F756D)/mGluR7 heterodimer (Rattus norvegicus, UniProt P31421+P35400, F756D); assay: Whole-cell patch clamp of GIRK1 current, trans-activation in SNAP-mGluR2(F756D)/mGluR7; type: cell-based; details: for glutamate GIRK concentration-response relation compared to mGluR2/2: patch clamp
T1 construct: HA (N); expressed in transfected cells; host or cells: HEK293 / HEK293T
From the text: We explored this further by examining trans-activation, whereby binding of ligand to one subunit activates G-protein interaction in the partner subunit[46],[47]. To specifically activate only the mGluR2 subunit of the mGluR2/7 heterodimer, we selectively attached a photoswitched tethered ligand to mGluR2. […] SNAP-mGluR2(F756D) was co-expressed with wild-type mGluR7 along with the GIRK1 channel.
(§1) Illumination was applied to the entire field of view using either a Polychrome V monochromator (TILL Photonics) through a 20× objective, or a Lambda DG4 high-speed wavelength switcher (Sutter Instruments) with 380 nm and 500 nm filters through a 40× objective. pClamp software was used for both data acquisition and control of illumination.

SNAP-mGluR2(F756D) = molecular target: T2, SNAP-mGluR2(F756D) (Rattus norvegicus, UniProt P31421, F756D); assay: Whole-cell patch clamp of GIRK1 current, SNAP-mGluR2(F756D) expressed alone; type: cell-based; details: SNAP-mGluR2-F756D alone; 1 mM Glu; single cells
T2 construct: HA (N); expressed in transfected cells; host or cells: HEK293 / HEK293T
From the text: We explored this further by examining trans-activation, whereby binding of ligand to one subunit activates G-protein interaction in the partner subunit[46],[47]. To specifically activate only the mGluR2 subunit of the mGluR2/7 heterodimer, we selectively attached a photoswitched tethered ligand to mGluR2.
as §1

[3] = molecular target: SNAP-mGluR2/SNAP-mGluR2 homodimer (mGluR2/2) (Rattus norvegicus, UniProt P31421); assay: Live-cell ensemble FRET of SNAP-mGluR2/2 homodimer in HEK293T cells; type: cell-based; parameters: HA (N); made in house; host or cells: HEK293T; details: for normalized FRET response (Figure 3c titration), AVG: left block
Protocol: After labeling, cells were mounted on an upright, scanning confocal microscope (Zeiss LSM 780) and imaged with a 20X objective. […] Clusters of cells were analyzed together and FRET was calculated as FRET = (IA)/(ID + IA), in which ID is the fluorescence donor intensity and IA is the fluorescence acceptor intensity. […] Fitting of dose–response curves was performed using Prism (Graphpad). […] Drugs were delivered with a gravity-driven perfusion system.

mGluR5(YADA) homodimer = details: 10 mM glutamate ref 46; cited from earlier work
[4] = molecular target: SNAP-mGluR2/SNAP-mGluR2 (mGluR2/2) (Rattus norvegicus, UniProt P31421); assay: Whole-cell patch clamp of GIRK1 current, mGluR2/2 homodimer; details: mGluR2/2+GIRK; for titration values, single replicates 1-3: individual replicates; for titration values, AVG (normalized response): Supplemental Figure 1a
[5] = molecular target: T3, CLIP-mGluR2/SNAP-mGluR2(YADA) dimer (Rattus norvegicus, UniProt P31421, D295A/Y216A); assay: smFRET on CLIP-mGluR2/SNAP-mGluR2(YADA) dimers; type: biochemical; details: for mGluR2/2(YADA) Histogram area: Figure 4c
T3 construct: Flag (N); HA (N); made in house; host or cells: HEK293T
From the text: To examine this, we tested the behavior of a heterodimer that co-assembles a wild-type mGluR2 with a binding site mutant version of mGluR2, mGluR2 (Y216A and D295A; known as the YADA mutant). […] We co-expressed CLIP-mGluR2 and SNAP-mGluR2(YADA) and labeled with the SNAP-selective acceptor dye BG-Alexa-647 and the CLIP-selective donor dye BC-DY-547. […] These findings indicate that closure of a single wild-type mGluR2 subunit is much more efficient in activating the receptor when partnered in the dimer with an mGluR7 than with another mGluR2.
(100 ms time resolution).

T1 sequence (P31421 19-872 F756D): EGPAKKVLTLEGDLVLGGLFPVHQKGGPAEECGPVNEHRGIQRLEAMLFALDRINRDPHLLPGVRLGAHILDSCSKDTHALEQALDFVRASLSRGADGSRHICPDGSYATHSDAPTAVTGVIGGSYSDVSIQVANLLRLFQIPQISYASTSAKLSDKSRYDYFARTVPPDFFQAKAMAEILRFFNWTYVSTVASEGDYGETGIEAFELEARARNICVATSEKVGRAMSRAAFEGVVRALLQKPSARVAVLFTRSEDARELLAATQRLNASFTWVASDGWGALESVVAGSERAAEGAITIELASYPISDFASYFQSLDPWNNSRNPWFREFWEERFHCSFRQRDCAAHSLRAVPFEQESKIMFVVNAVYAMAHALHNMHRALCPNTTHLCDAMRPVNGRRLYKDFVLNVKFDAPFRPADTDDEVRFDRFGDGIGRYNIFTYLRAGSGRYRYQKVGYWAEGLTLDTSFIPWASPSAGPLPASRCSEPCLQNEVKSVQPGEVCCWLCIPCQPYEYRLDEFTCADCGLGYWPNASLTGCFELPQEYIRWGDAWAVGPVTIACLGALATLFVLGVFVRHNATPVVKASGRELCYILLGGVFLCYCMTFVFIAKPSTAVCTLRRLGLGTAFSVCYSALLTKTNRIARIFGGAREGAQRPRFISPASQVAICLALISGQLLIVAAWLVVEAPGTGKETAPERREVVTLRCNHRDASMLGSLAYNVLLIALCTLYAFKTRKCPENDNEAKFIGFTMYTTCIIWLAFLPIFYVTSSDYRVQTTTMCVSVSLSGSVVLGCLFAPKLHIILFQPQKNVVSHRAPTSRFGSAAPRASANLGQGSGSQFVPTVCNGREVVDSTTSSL
T1 sequence (P35400 35-915): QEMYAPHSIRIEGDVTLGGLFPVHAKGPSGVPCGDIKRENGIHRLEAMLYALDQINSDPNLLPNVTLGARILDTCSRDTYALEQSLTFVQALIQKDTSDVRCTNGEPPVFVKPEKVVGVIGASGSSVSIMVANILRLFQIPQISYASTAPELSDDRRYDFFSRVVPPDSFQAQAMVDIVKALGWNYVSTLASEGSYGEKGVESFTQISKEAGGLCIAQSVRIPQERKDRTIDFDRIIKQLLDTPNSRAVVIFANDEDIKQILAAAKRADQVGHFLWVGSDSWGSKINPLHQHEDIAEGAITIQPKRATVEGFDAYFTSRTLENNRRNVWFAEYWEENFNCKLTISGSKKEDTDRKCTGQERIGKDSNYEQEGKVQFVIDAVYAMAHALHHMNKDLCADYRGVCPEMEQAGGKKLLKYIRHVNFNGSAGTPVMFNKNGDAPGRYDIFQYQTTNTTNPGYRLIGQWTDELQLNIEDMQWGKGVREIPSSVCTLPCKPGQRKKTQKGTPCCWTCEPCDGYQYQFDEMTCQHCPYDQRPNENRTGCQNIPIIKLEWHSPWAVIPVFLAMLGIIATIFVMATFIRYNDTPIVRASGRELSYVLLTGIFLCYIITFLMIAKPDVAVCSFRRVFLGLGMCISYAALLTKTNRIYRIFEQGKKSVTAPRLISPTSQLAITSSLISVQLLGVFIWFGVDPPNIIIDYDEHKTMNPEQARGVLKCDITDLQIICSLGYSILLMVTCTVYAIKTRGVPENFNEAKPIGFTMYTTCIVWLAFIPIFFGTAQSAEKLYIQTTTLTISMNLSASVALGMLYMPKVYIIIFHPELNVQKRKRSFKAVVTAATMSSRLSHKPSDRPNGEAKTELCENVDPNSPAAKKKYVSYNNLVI
T3 sequence (P31421 19-872, stated change not applied): as the sequence (P31421 19-872 F756D) above, with D738F counted along it
T3 sequence (P31421 19-872 Y216A/D295A): as the sequence (P31421 19-872 F756D) above, with Y198A, D277A, D738F counted along it
Chain of SNAP-mGluR2/SNAP-mGluR2 (mGluR2/2) (P31421 19-872): as the sequence (P31421 19-872 F756D) above, with D738F counted along it
Chain of SNAP-mGluR2/SNAP-mGluR2 homodimer (mGluR2/2) (P31421 19-872): as the sequence (P31421 19-872 F756D) above, with D738F counted along it
Chain of SNAP-mGluR7/SNAP-mGluR7 homodimer (mGluR7/7) (P35400 35-915): as the sequence (P35400 35-915) above
T2 sequence (P31421 19-872 F756D): as the sequence (P31421 19-872 F756D) above

Structure (SMILES): N[C@@H](CCC(=O)O)C(=O)O [glutamate]
- EC50 [1]: 38.3 mM and 38 mM
- Norm. (100 nM Glu), average ([2]; 100 nM Glu normalised to 1 mM Glu, average of cells): 0.158
- Norm. (1 uM Glu), average ([2]; 1 uM Glu normalised to 1 mM Glu, average of cells): 0.4678
- Norm. (1 uM Glu) ([2]; 1 uM Glu normalised to 1 mM Glu, single cells, listed as Glu): 0.3693 and 0.5844 and 0.4728 and 0.4449
- Norm. (10 uM), average ([2]; 10 uM Glu normalised to 1 mM Glu, average of cells): 0.7782
- Norm. (10 uM) ([2]; 10 uM Glu normalised to 1 mM Glu, single cells, listed as Glu): 0.7837 and 0.9099 and 0.6409
- Norm. (100 uM), average ([2]; 100 uM Glu normalised to 1 mM Glu, average of cells): 0.9915
- Norm. (100 uM) ([2]; 100 uM Glu normalised to 1 mM Glu, single cells, listed as Glu): 1.055 and 0.9085 and 1.011
- glutamate GIRK concentration-response relation compared to mGluR2/2 [2]: shifted to the left
- glutamate GIRK concentration-response relation compared to mGluR2/2 ([2]; listed as Glutamate): left-shifted
- Current, 1 mM Glu (SNAP-mGluR2(F756D)): 0
- fractional change in FRET (Figure 1c), Average ([3]; 1 mM glutamate, live cells): 0.0345
- normalized FRET response (Figure 3c titration), AVG ([3]; Glu 1uM, normalized to 10 mM): 0.02436
- normalized FRET response (Figure 3c titration), AVG ([3]; Glu 5uM): 0.1119
- normalized FRET response (Figure 3c titration), AVG ([3]; Glu 10uM): 0.2744
- normalized FRET response (Figure 3c titration), AVG ([3]; Glu 20uM): 0.534
- normalized FRET response (Figure 3c titration), AVG ([3]; Glu 50uM): 0.7966
- normalized FRET response (Figure 3c titration), AVG ([3]; Glu 100uM): 0.8891
- normalized FRET response (Figure 3c titration), AVG ([3]; Glu 200uM): 0.9536
- normalized FRET response (Figure 3c titration), AVG ([3]; Glu 500uM): 0.9786
- normalized FRET response (Figure 3c titration), AVG ([3]; Glu 1mM): 0.9832
- normalized FRET response (Figure 3c titration), AVG ([3]; Glu 10mM (normalization point)): 1
- activation by glutamate (mGluR5(YADA) homodimer): not be activated
- titration values, single replicates 1-3 ([4]; Glu 1e-6, listed as Glu): 0.1214 and 0.05844 and 0.0437
- titration values, AVG (normalized response) ([4]; Glu 1e-5): 0.4456
- titration values, single replicates 1-3 ([4]; Glu 1e-5, listed as Glu): 0.4624 and 0.4291 and 0.4452
- titration values, AVG (normalized response) ([4]; Glu 0.0001): 0.9358
- titration values, single replicates 1-3 ([4]; Glu 0.0001, listed as Glu): 0.9459 and 0.9335 and 0.9281
- titration values, AVG (normalized response) ([4]; Glu 0.001): 1.022
- titration values, single replicates 1-3 ([4]; Glu 0.001, listed as Glu): 1.05 and 1.012 and 1.0027
- titration values, AVG (normalized response) ([4]; Glu 0.01 (normalisation point)): 1
- titration values, single replicates 1-3 ([4]; Glu 0.01 (normalisation point)): 1
- mGluR2/2(YADA) Histogram area ([5]; Glu 1e-6): 0.0005
- mGluR2/2(YADA) Histogram area ([5]; Glu 3e-6): 0.0013
- mGluR2/2(YADA) Histogram area ([5]; Glu 1e-5): 0.00167
- mGluR2/2(YADA) Histogram area ([5]; Glu 3e-5): 0.00171
- mGluR2/2(YADA) Histogram area ([5]; Glu 0.0001): 0.00339
- mGluR2/2(YADA) Histogram area ([5]; Glu 0.0003): 0.00443
- mGluR2/2(YADA) Histogram area ([5]; Glu 0.001): 0.00578
- mGluR2/2(YADA) Histogram area ([5]; Glu 0.01): 0.00605
- mGluR2/2(YADA) Histogram area ([5]; Glu 0.1): 0.00616
- maximal occupancy of the low FRET activated conformation ([5]; high glutamate): ~ 30%
